Results published in ChEMBL document CHEMBL1201862, “PubChem BioAssay data set” (2004).
Active and inactive are the calls of the source.

Key:
[1] = NIH-3T3 fibroblast cytotoxicity, dose response, cytotoxicity control, cell-based, fluorescence, Alamar Blue, secondary assay (AID 2327); type: functional;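 further: NIH-3T3 mouse fibroblasts cultured with fluconazole at 8 µg/mL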
[2] = target: T1, Zinc finger protein mex-5 (Caenorhabditis elegans, UniProt Q9XUB2); experiment: MEX-5/TCR-2 RNA interaction inhibitors, dose response, biochemical, C. elegans, fluorescence polarization (AID 1960)
T1 sequence (Q9XUB2 whole entry): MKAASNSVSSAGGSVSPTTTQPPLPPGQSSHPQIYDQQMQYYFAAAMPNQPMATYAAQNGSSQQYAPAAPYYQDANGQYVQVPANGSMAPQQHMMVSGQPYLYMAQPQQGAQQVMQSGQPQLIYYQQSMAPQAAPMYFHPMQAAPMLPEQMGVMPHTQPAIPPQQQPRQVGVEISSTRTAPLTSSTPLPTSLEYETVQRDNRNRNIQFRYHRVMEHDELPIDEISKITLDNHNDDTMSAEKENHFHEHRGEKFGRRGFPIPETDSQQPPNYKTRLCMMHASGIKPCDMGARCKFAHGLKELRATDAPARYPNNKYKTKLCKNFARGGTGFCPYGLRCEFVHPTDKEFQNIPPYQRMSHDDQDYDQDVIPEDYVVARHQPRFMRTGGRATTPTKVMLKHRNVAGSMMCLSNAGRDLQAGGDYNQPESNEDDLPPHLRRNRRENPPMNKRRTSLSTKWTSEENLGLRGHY

[3] = target: T2, Protein RecA (Mycobacterium tuberculosis, UniProt P9WHJ3); experiment: Fluorescence Cell-Free Homogeneous Dose Retest to Identify Inhibitors of RecA-Intein Splicing Activity. [Related pubchem assays (depositor defined):AID2097, AID2223, AID489010, AID492950]; type: functional
T2 sequence (P9WHJ3 whole entry): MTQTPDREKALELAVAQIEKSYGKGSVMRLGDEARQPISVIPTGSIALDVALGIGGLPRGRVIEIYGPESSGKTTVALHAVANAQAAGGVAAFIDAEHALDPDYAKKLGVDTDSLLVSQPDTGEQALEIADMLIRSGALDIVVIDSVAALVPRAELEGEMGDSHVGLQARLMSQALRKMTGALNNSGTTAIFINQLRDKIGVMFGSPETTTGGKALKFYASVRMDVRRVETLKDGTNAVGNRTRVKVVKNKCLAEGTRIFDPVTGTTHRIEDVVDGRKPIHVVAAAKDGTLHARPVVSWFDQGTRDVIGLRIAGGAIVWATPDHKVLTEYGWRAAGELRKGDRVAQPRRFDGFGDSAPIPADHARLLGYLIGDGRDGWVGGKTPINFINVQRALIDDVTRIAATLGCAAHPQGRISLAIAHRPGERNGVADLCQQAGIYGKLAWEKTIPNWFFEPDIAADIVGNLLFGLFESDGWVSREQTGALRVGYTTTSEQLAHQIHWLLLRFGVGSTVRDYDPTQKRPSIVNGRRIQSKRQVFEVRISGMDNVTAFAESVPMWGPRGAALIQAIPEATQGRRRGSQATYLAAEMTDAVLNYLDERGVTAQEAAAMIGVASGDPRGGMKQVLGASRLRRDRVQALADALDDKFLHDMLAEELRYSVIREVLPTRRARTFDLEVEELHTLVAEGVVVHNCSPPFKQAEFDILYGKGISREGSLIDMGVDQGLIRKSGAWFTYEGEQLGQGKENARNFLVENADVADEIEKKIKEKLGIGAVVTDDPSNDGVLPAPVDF

[4] = target: Albumin (Bos taurus, UniProt P02769); experiment: Counterscreen for inhibitors of T-cell receptor (TCR)-CD3 interaction: Fluorescence-based biochemical high throughput dose response assay to identify inhibitors of T-cell receptor (TCR)-CD3 interaction using a TAMRA-labeled BSA probe.; type: functional
[5] = target: T3, Replicative DNA helicase DnaB (Mycobacterium tuberculosis, UniProt P9WMR3); experiment: DnaB intein splicing inhibitors, dose response, biochemical, cell-free fluorescence (AID 449749); type: functional
T3 sequence (P9WMR3 whole entry): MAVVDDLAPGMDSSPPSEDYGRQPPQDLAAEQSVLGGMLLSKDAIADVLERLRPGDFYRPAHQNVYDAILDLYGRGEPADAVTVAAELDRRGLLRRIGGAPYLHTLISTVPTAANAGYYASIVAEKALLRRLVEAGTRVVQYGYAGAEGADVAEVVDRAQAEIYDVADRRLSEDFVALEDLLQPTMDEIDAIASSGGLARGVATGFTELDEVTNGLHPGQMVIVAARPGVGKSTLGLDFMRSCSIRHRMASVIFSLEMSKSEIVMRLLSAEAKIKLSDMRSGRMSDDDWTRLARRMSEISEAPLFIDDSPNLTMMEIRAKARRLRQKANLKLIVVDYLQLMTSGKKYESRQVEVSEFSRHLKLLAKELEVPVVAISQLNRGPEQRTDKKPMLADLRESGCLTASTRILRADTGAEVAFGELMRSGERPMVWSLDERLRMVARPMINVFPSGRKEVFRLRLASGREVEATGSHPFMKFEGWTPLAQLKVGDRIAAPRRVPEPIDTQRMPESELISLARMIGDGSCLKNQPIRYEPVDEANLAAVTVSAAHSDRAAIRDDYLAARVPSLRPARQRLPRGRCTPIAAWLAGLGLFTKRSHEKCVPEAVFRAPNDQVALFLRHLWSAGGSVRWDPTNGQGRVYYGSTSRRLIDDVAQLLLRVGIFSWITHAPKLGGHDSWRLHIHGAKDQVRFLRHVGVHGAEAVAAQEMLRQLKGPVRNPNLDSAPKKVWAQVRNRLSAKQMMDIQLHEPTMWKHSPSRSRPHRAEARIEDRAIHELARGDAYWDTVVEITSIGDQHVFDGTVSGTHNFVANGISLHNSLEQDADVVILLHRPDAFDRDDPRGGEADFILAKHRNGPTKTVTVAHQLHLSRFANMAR

[6] = target: T4, RNA-binding protein pos-1 (Caenorhabditis elegans, UniProt G5EF15); experiment: inhibitors of POS-1/mex-3 RNA binding, dose response, biochemical, fluorescence polarization (AID 1964);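 further: purified POS-1 fused to maltose binding protein made in E. coli; potency of compounds blocking POS-1 binding to fluorescent RNA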
T4 sequence (G5EF15 whole entry): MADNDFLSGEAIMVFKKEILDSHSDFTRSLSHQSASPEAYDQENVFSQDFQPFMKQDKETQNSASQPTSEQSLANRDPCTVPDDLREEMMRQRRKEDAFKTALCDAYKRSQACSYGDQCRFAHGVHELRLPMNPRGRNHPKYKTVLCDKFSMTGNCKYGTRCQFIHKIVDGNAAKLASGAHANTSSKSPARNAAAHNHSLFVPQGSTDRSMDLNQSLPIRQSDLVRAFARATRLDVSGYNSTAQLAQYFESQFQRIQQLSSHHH

[7] = C. albicans growth with fluconazole, confirmation, fluorescence, retest (AID 2467); type: functional, cell-based
[8] = human group III sPLA2 inhibitors, dose response, biochemical, QFRET, IC50 (AID 743457);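 further: green fluorescence rise as the enzyme cleaves BODIPY PC-A2 in liposomes; potency for inhibition of the enzyme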
[9] = target: Luciferin 4-monooxygenase (Photinus pyralis, UniProt P08659); experiment: firefly luciferase enzyme inhibitors, dose response, biochemical, luminescence (AID 1891)
[10] = MC4R antagonists, dose response, counter-screen for LGR2 antagonist project, cell-based, plate reader, cherry pick (AID 743444); type: functional;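 further: transfected HEK 293 cells stimulated with alpha-MSH peptide; potency of inhibitors of the alpha-MSH evoked signal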
[11] = HEK293 cell cytotoxicity, dose response, cytotoxicity control, plate reader, cherry-picked samples (AID 743446); type: functional, cell-based
[12] = HepG2 cell cytotoxicity, dose response, cytotoxicity control, plate reader, cherry-pick, antagonist series (AID 743416); type: functional, cell-based
[13] = Luminescence Cell-Based Dose Confirmation HTS to Identify Inhibitors of Platelet Dense Granule Release. [Related pubchem assays: 1663 (Primary HTS), 1678 (Summary of Project)]; type: functional
[14] = LGR2 antagonists, dose response, cell-based, HEK293, CRE-luciferase reporter, cherry pick, set 2 (AID 743343); type: functional;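 further: transfected cells were stimulated with diluted bursicon conditioned medium after compound addition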
[15] = target: T5, Protein skinhead-1 (Caenorhabditis elegans, UniProt P34707); type: functional
T5 sequence (P34707 whole entry): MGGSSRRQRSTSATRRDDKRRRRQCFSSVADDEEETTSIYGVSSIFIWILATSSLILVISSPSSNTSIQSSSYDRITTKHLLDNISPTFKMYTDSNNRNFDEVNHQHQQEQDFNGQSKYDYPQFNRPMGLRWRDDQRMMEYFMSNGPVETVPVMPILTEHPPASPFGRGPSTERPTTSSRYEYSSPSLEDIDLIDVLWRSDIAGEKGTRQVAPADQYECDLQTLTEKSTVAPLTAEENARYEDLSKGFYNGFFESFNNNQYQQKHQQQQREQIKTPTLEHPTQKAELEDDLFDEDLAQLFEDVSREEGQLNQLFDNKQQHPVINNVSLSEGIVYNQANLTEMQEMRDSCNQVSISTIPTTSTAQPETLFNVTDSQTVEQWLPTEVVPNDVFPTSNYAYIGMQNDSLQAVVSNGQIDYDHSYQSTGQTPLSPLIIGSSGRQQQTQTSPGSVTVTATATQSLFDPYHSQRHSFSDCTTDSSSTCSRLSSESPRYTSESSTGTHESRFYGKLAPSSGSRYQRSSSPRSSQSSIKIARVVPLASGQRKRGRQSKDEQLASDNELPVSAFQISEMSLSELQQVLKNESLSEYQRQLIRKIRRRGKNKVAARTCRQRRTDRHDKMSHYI

[16] = A549 cell cytotoxicity, dose response, cytotoxicity control, plate reader, cherry-pick, antagonist series (AID 743412); type: functional, cell-based
[17] = test system: BJ; experiment: cells; type: functional, cell-based; conditions: Homo sapiens
[18] = test system: BJ; experiment: cytotoxicity toward BJ-TERT-LT-ST fibroblasts, dose response, cell-based, RAS-independent, luminescence (AID 1935); type: functional; conditions: Homo sapiens;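 further: BJ fibroblasts immortalized with TERT plus LT and ST oncogenes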
[19] = cytotoxicity toward DRD oncogenic fibroblasts, dose response, cell-based, non-viral oncogenic, luminescence (AID 1934); type: functional; conditions: Homo sapiens
[20] = test system: BJ; experiment: cytotoxicity toward BJ-TERT fibroblasts, dose response, cell-based, RAS-independent, luminescence (AID 1933); type: functional; conditions: Homo sapiens

Luciferin 4-monooxygenase, sequence (P08659 whole entry): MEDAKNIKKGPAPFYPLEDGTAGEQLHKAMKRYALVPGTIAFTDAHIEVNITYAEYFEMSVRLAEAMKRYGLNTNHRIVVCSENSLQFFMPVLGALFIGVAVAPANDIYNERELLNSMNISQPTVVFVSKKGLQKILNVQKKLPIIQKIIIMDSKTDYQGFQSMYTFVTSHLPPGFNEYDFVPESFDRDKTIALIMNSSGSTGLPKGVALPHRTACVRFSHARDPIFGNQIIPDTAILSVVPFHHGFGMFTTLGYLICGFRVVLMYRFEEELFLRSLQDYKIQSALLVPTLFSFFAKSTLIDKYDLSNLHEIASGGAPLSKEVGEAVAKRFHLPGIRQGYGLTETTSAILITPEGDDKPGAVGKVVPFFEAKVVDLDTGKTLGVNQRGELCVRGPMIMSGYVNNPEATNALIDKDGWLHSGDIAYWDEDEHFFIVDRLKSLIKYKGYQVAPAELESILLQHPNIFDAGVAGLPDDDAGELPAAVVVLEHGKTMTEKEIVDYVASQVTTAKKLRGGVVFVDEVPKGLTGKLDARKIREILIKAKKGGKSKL
Albumin, sequence (P02769 whole entry): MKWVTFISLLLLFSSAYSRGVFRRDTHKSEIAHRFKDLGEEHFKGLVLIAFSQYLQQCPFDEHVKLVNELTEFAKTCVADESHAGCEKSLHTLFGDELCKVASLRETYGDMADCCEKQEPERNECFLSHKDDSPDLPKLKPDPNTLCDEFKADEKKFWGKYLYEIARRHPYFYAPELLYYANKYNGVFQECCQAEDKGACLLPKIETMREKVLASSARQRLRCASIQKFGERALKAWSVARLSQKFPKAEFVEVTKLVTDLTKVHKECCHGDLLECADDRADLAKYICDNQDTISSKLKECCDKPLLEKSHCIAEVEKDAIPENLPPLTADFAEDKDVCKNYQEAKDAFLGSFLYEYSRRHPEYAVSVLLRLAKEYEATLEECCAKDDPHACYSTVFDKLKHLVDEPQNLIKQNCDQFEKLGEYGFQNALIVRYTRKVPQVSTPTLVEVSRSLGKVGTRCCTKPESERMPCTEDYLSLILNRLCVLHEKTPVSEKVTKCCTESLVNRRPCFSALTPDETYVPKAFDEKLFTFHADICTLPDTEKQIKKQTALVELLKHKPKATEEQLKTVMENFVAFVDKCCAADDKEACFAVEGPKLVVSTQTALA

Structure (SMILES) | EC50 [1] | EC50 [2] | EC50 [3] | IC50 [4] | AC50 [5] | EC50 [6] | EC50 [7] | IC50 [8] | EC50 [9] | AC50 [10] | AC50 [11] | AC50 [12] | EC50 [13] | AC50 [14] | IC50 [15] | AC50 [16] | EC50 [17] | EC50 [18] | EC50 [19] | EC50 [20]
O=C(NNC(=O)c1ccc2ccccc2c1O)c1ccccc1Cl | > 160 µM (inactive) | 2.31 µM (inconclusive) | > 380 µM (inactive) | > 94.1 µM (inactive) | 30 µM (active) | 15.4 µM (inconclusive) | > 38 µM (not active) | > 122 µM (inactive) | – | – | – | – | – | – | – | – | – | – | – | –
CCOc1ccc2nc(NC(=O)c3ccco3)sc2c1 | – | – | – | – | – | – | – | – | 0.383 µM (active) | 7.74 µM (active) | 20.6 µM (active) | 32.6 µM (active) | 3.13 µM (active) | 8.15 µM (active) | > 100 µM (inactive) | 35.4 µM (active) | – | – | – | –
O=C(Nc1ccc(-c2nc3ccccc3[nH]2)cc1)C1CCCO1 (configuration not stated) | – | – | – | – | – | – | – | – | 1.02 µM (active) | 6.98 µM (active) | 21 µM (active) | 24.7 µM (active) | 1.69 µM (active) | 6.14 µM (active) | – | 14.1 µM (active) | 16.8 µM (inconclusive) | 22.9 µM (active) | 9.19 µM (inconclusive) | 8.39 µM (inconclusive)
